The source of these data is US5045566A, “Novel imidate insecticides” (ICI Americas Inc., priority 1989, dated 1991).

Holding throughout (assay type): in vivo
Assay [1] has as its system Aster Leafhopper [Macrosteles fascifrens (Stal)]. Put plainly: Aster leafhopper on dipped oat seedlings (LH), 48 hours. The following applies: percent in solution, adults/nymphs. How it is done:
The compounds in Tables 1 and 2 above were tested for insecticidal activity using the following testing procedures. LC50 values, based on the results of these tests and calculated according to dosage-mortality curves, are expressed in Table 3.
Aster Leafhopper [Macrosteles fascifrens (Stal)]
Oat seedlings (Avena sp) were grown in a commercial potting soil in cups. When the plants were approximately 10 cm tall they were thinned to three plants per cup and dipped for 2-3 seconds in 50-50 acetone-water solutions of the test compounds. When the plants had dried, a clear plastic tube was placed over them and the bottom end pressed into the cup. Ten aster leafhopper adults/nymphs were then placed in each tube and the tops of the tubes covered with white organdy cloth. Mortality counts were made after 48 hours. Test concentrations ranged from 0.05% down to that at which 50% mortality occurred. The LC50 values are expressed below in Table 3 under the heading "LH" in terms of the percent of the test compound in the solution.

Assay [2] has as its system Tobacco Budworm [Heliothis virescens (Fabricius)] eggs. Put plainly: Tobacco budworm eggs (TBW-E). The conditions noted are these: percent in solution; 2-day old eggs. Put shortly: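 LC50 is given as percent compound in the dipping solution, fitted from dosage-mortality curves. Two-day-old eggs on paper towel were dipped in acetone solutions (top concentration 0.1%), kept at 78° F on rearing medium, and scored after control hatch and larval feeding.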

In assay [3] the test system is Cabbage Looper [Trichoplusia ni (Hubner)]. Description: Cabbage looper leaf dip (CL), 3-5 days. The following applies: percent in solution, second-instar larvae. Put shortly:
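LC50, as percent test compound in solution, derived from dosage-mortality curves; concentrations started at 0.1% and went lower. Five second-instar larvae per dish fed on acetone-water-dipped, dried squash cotyledons in a humid chamber. Deaths recorded 3-5 days post-infestation.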

In assay [4] the test system is Black Bean Aphid [Aphis fabae (Scop.)]. Put plainly: Black bean aphid spray test on nasturtium (BBA), 48 hours. The following applies: percent of test compound in sprayed solution. Put shortly: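 LC50, given as percent test compound in the sprayed liquid, was calculated from dosage-mortality curves using concentrations from 0.05% downward. Sprays in 50:50 acetone-water went to runoff on ~5 cm nasturtiums carrying 25-50 aphids of mixed ages, one day after infestation. Deaths were counted 48 h later under greenhouse conditions.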

For assay [5], the system named is Housefly [Musca domestica]. Put plainly: Housefly contact mortality in dishes (HF), 48 hours. The following applies: μg of test compound per 25 female flies. Put shortly:
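Acetone solutions (with 0.01% peanut oil) dried onto dish bottoms, then 25 female flies, 1-2 days old, caged over the residue with sugar water. Mortality scored at 48 hours; LC50 from dosage-mortality curves, in μg per 25 female flies, top level 100 μg.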

The test system of assay [6] is Maize weevil [Sitophilus zeamais (Motschulsky)]. Description: Maize weevil on dipped corn seeds (MW), 48 hours. The conditions noted are these: percent in solution, adult weevils. In a few lines: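 LC50, given as percent of compound in dipping solution, comes from dosage-mortality curves over concentrations descending from 0.01%. Four corn seeds soaked 2-3 s in 50:50 acetone:water solution were dried and held with 10 adult weevils, about 25° C, mortality read after 48 h.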

Bounds are passed on as bounds.

For `CC(C)CC(=Nc1cc(Cl)cc(Cl)c1)OCc1cccc(Oc2ccccc2)c1` [Compound 10], the “LC50 LH” value in assay [1] is over 0.05%. In addition, in assay [2], the “LC50 TBW E (eggs)” value was over 0.1%. Moreover, the “LC50 CL” value in assay [3] turned out to be 0.01%. In addition, the “LC50 BBA” value in assay [4] turned out to be 0.05%. In assay [5], the “LC50 HF” value is over 100 µg.
Consider `CCCC(=Nc1ccc2c(c1)OCO2)OCc1cccc(Oc2ccccc2)c1` [Compound 188], for which the “LC50 LH” value in assay [1] is listed as over 0.05%. Besides, in assay [2], the “LC50 TBW E (eggs)” value is over 0.1%. Besides, the “LC50 CL” value in assay [3] was determined as 0.002%. For the same compound, the “LC50 HF” value in assay [5] was determined as 12 µg.
For `CC(C)C(=Nc1cc(F)ccc1Cl)OCc1ccc(F)c(Oc2ccc(F)cc2)c1` [Compound 303] the same measures were 0.0005%, over 0.1%, 0.0015% and over 100 µg.
For `CC(C)C(=Nc1ccc2c(c1)OCO2)OCc1cccc(Oc2ccc(F)cc2)n1` [Compound 465] the same measures were 0.0025%, 0.027%, 0.0017% and 8 µg.
With `COCc1c(F)c(F)c(COC(=Nc2cccc(C(F)(F)F)c2)C(C)C)c(F)c1F` [Compound 503], the “LC50 MW” value in assay [6] is on record as over 0.01%. Moreover, the “LC50 TBW E (eggs)” value in assay [2] stood at 0.08%. Besides, the “LC50 CL” value in assay [3] was determined as 0.001%. The “LC50 BBA” value in assay [4] came to 0.006%. Also, the “LC50 HF” value in assay [5] worked out at 21 µg.
Take `CC(C)C(=Nc1ccc(C(F)(F)F)cc1)OCc1cccc(Oc2ccccc2)n1` [Compound 504]: the “LC50 MW” value in assay [6] amounted to 0.01%. Further, the “LC50 TBW E (eggs)” value in assay [2] stood at 0.05%. Besides, the “LC50 CL” value in assay [3] was found to be 0.00025%. The “LC50 BBA” value in assay [4] is reported as 0.0003%. In addition, the “LC50 HF” value in assay [5] was under 100 µg.
For `COCc1c(F)c(F)c(COC(=Nc2ccc(F)c(Cl)c2)C(C)C)c(F)c1F` [Compound 505] the same measures were over 0.01%, 0.09%, 0.0024%, 0.002% and 14 µg.
For `CC(C)C(=Nc1cccc(C(F)(F)F)c1)OCc1cc(Oc2ccccc2)ccn1` [Compound 506] the same measures were over 0.01%, over 0.1%, 0.005%, 0.03% and 40 µg.
For `CC(C)C(=Nc1cccc(C(F)(F)F)c1)OCc1ccnc(Oc2ccccc2)c1` [Compound 507] the same measures were over 0.01%, over 0.1%, 0.002%, 0.05% and 93 µg.
Take `CC(C)C(=Nc1cccc(C(F)(F)F)c1)OCc1cc(Oc2ccc(Cl)cc2)ccn1` [Compound 509]: in assay [6], the “LC50 MW” value is over 0.01%. Besides, the “LC50 TBW E (eggs)” value in assay [2] is listed as over 0.1%. Further, in assay [3], the “LC50 CL” value is 0.0075%. Moreover, the “LC50 BBA” value in assay [4] is listed as over 0.05%. Further, in assay [5], the “LC50 HF” value was 79 µg.
The corresponding values for `CC(C)C(=Nc1ccc(F)c(Cl)c1)OCc1ccnc(Oc2ccccc2)c1` [Compound 510] are over 0.01%, over 0.1%, 0.017%, 0.05% and 54 µg.
Regarding `CC(C)C(=Nc1ccc(F)c(Cl)c1)OCc1ccnc(Oc2ccc(F)cc2)c1` [Compound 511], the “LC50 MW” value in assay [6] was over 0.01%. Moreover, in assay [2], the “LC50 TBW E (eggs)” value is over 0.1%. Besides, the “LC50 CL” value in assay [3] is 0.0012%. The “LC50 BBA” value in assay [4] is 0.05%. Further, in assay [5], the “LC50 HF” value was found to be 89 µg.
For the compound `CC(C)C(=Nc1ccc(OC(F)(F)F)cc1)OCc1cccc(Oc2ccccc2)n1` [Compound 550], the “LC50 MW” value in assay [6] is given as over 0.01%. Also, in assay [2], the “LC50 TBW E (eggs)” value was over 0.1%. Besides, the “LC50 CL” value in assay [3] is recorded as 0.00034%. The “LC50 BBA” value in assay [4] was 0.002%. The “LC50 HF” value in assay [5] was under 100 µg.
For `CC(C)C(=Nc1ccc(Br)c(F)c1)OCc1cccc(Oc2ccc(Cl)cc2)n1` [Compound 551] the same measures were over 0.01%, 0.035%, 0.00075%, 0.0006% and under 100 µg.
The corresponding values for `CCc1ccc(N=C(OCc2cccc(Oc3ccc(Cl)cc3)n2)C(C)C)cc1` [Compound 552] are over 0.01%, over 0.1%, 0.0016%, 0.002% and over 100 µg.
The corresponding values for `CC(C)C(=Nc1ccc(Cl)cc1)OCc1cccc(Oc2ccccc2)n1` [Compound 553] are over 0.01%, 0.1%, under 0.1%, 0.05% and under 100 µg.
In the case of `CC(C)C(=Nc1ccc(Cl)cc1)OCc1cccc(Oc2ccc(Cl)cc2)n1` [Compound 554], the “LC50 MW” value in assay [6] was over 0.01%. The “LC50 TBW E (eggs)” value in assay [2] is 0.04%. Moreover, the “LC50 CL” value in assay [3] came to 0.00075%. Further, in assay [4], the “LC50 BBA” value worked out at 0.003%. In addition, the “LC50 HF” value in assay [5] was over 100 µg.
For `CC(C)C(=Nc1ccc(Cl)c(C(F)(F)F)c1)OCc1cccc(Oc2ccccc2)n1` [Compound 555] the same measures were over 0.01%, over 0.1%, 0.002%, 0.0035% and under 100 µg.
For `CC(C)C(=Nc1ccc2c(c1)OC(F)(F)O2)OCc1cccc(Oc2ccccc2)n1` [Compound 556], the “LC50 MW” value in assay [6] is recorded as over 0.01%. Besides, in assay [2], the “LC50 TBW E (eggs)” value is listed as 0.04%. In addition, the “LC50 CL” value in assay [3] is 0.0007%. The “LC50 BBA” value in assay [4] was determined as 0.0035%. Further, the “LC50 HF” value in assay [5] is under 100 µg.
The corresponding values for `CC(C)C(=Nc1cccc(Br)c1)OCc1cccc(Oc2ccc(Cl)cc2)n1` [Compound 557] are over 0.01%, over 0.1%, 0.0004%, 0.0015% and under 100 µg.
For `CC(C)C(=Nc1ccc(F)c(Br)c1)OCc1cccc(Oc2ccccc2)n1` [Compound 558] the same measures were over 0.01%, over 0.1%, 0.00045%, 0.0012% and under 100 µg.
For `CC(C)C(=Nc1ccc(F)c(F)c1)OCc1cccc(Oc2ccc(Cl)cc2)n1` [Compound 559] the same measures were over 0.01%, 0.017%, 0.00027%, 0.0035% and under 100 µg.
For `C=C(C)C(=Nc1ccc(C(F)(F)F)cc1)OCc1cccc(Oc2ccc(Cl)cc2)n1` [Compound 560], the “LC50 MW” value in assay [6] was over 0.01%. For the same compound, the “LC50 TBW E (eggs)” value in assay [2] is reported as under 0.1%. In addition, in assay [3], the “LC50 CL” value is given as 0.0015%. For the same compound, the “LC50 BBA” value in assay [4] is reported as 0.0025%. The “LC50 HF” value in assay [5] is under 100 µg.
